In patent publication US7855290B2, “Pyridine derivatives and pyrimidine derivatives (3)” (Eisai R&D Management Co., Ltd., priority 2005, dated 2010):
pIC50: −log10 of the molar value.

What follows are compounds tested against T1, His6-HGFR (HGFR cytoplasmic domain) (Homo sapiens, UniProt P08581) (assay: Inhibitory activity against HGFR tyrosine kinase activity (HTRF)). Conditions: biotin-poly(GT), ATP, 30° C. 10 min.
T1 construct: made in house; host or cells: Sf9 insect cells (Spodoptera frugiperda), baculovirus, pFastBac-HT vector
T1 sequence (P08581 956-1390 limits assumed): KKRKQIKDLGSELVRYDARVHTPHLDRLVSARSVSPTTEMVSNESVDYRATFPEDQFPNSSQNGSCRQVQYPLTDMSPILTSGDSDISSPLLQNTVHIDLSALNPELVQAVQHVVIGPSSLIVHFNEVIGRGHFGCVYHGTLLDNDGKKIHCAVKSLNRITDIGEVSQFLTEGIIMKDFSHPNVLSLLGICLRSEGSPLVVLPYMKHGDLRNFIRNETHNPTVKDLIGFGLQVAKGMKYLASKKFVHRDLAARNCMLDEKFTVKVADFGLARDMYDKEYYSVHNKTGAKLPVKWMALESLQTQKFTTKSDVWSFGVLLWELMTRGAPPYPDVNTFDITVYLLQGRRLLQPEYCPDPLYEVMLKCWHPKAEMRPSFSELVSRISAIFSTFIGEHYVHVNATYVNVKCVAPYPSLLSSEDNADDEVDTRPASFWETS
Type: biochemical
Summary of the method: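 Sf9-expressed, Ni-NTA-purified N-terminal His6-tagged HGFR cytoplasmic domain (from Lys974), 30 ng, phosphorylates 250 ng biotin-poly(GT) in Hepes pH 7.4 with MgCl2, MnCl2 and Na3VO4. Reaction started with 4 μM ATP stock, run 10 min at 30° C, stopped with EDTA. Phosphotyrosine is detected by HTRF.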

Row | Structure (SMILES) | pIC50
1 | CN1CCC(N(C)C(=O)Nc2cc(Oc3ccc(NC(=O)C4(C(=O)Nc5ccc(F)cc5)CC4)cc3F)ncn2)CC1 [Example 33, N-(3-Fluoro-4-{[6-({[methyl(1-methylpiperidin-4-yl)amino]carbonyl}amino)pyrimidin-4-yl]oxy}phenyl)-N′-(4-fluorophenyl)cyclopropane-1,1-dicarboxamide] | 7.59
2 | O=C(Nc1cc(Oc2ccc(NC(=O)C3(C(=O)Nc4ccc(F)cc4)CC3)cc2F)ncn1)N1CCC(N2CCC2)CC1 [Example 34, N-{4-[(6-{[(4-Azetidin-1-ylpiperidin-1-yl)carbonyl]amino}pyrimidin-4-yl)oxy]-3-fluorophenyl}-N′-(4-fluorophenyl)cyclopropane-1,1-dicarboxamide] | 7.14
3 | O=C(Nc1cc(Oc2ccc(NC(=O)C3(C(=O)Nc4ccc(F)cc4)CC3)cc2F)ncn1)N1CCOCC1 [Example 35, N-[3-Fluoro-4-({6-{(morpholin-4-ylcarbonyl)amino}pyrimidin-4-yl}oxy)phenyl]-N′-(4-fluorophenyl)cyclopropane-1,1-dicarboxamide] | 7.54
4 | CCN(CC)CCCNC(=O)Nc1cc(Oc2ccc(NC(=O)C3(C(=O)Nc4ccc(F)cc4)CC3)c(Cl)c2)ccn1 [Example 43, N-[2-Chloro-4-({2-[({[3-(diethylamino)propyl]amino}carbonyl)amino]pyridin-4-yl}oxy)phenyl]-N′-(4-fluorophenyl)cyclopropane-1,1-dicarboxamide] | 6.74
5 | CCN(CC)CCCN(C)C(=O)Nc1cc(Oc2ccc(NC(=O)C3(C(=O)Nc4ccc(F)cc4)CC3)cc2F)ccn1 [Example 44, N-(4-{[2-({[[3-(Diethylamino)propyl](methyl)amino]carbonyl}amino)pyridin-4-yl]oxy}-3-fluorophenyl)-N′-(4-fluorophenyl)cyclopropane-1,1-dicarboxamide] | 7.04
6 | CCN(CC)CCCNC(=O)Nc1cc(Oc2ccc(NC(=O)C3(C(=O)Nc4ccc(F)cc4)CC3)cc2C)ccn1 [Example 45, N-[4-({2-[({[3-(Diethylamino)propyl]amino}carbonyl)amino]pyridin-4-yl}oxy)-3-methylphenyl]-N′-(4-fluorophenyl)cyclopropane-1,1-dicarboxamide] | 6.62
7 | CN1CCC(N(C)C(=O)Nc2cc(Oc3ccc(NC(=O)C4(C(=O)Nc5ccccc5)CC4)c(F)c3)ccn2)CC1 [Example 48, N-(2-Fluoro-4-{[2-({[methyl(1-methylpiperidin-4-yl)amino]carbonyl}amino)pyridin-4-yl]oxy}phenyl)-N′-phenylcyclopropane-1,1-dicarboxamide] | 7.20
8 | CN1CCN(C2CCN(C(=O)Nc3cc(Oc4ccc(NC(=O)C5(C(=O)Nc6ccccc6)CC5)c(F)c4)ccn3)CC2)CC1 [Example 54, N-(2-Fluoro-4-{[2-({[4-(4-methylpiperazin-1-yl)piperidin-1-yl]carbonyl}amino)pyridin-4-yl]oxy}phenyl)-N′-phenylcyclopropane-1,1-dicarboxamide] | 7.19
9 | CN(C)C1CN(C2CCN(C(=O)Nc3cc(Oc4ccc(NC(=O)C5(C(=O)Nc6ccccc6)CC5)c(F)c4)ccn3)CC2)C1 [Example 55] | 6.92
10 | CN1CCC(N(C)C(=O)Nc2cc(Oc3ccc(NC(=O)C4(C(=O)Nc5ccc(F)cc5F)CC4)c(F)c3)ccn2)CC1 [Example 56, N-(2,4-Difluorophenyl)-N′-(2-fluoro-4-{[2-({[methyl(1-methylpiperidin-4-yl)amino]carbonyl}amino)pyridin-4-yl]oxy}phenyl)cyclopropane-1,1-dicarboxamide] | 6.96

Continued, values first:

Row | pIC50 | Structure (SMILES)
11 | 7.24 | O=C(Nc1cc(Oc2ccc(NC(=O)C3(C(=O)Nc4ccc(F)cc4)CC3)cc2F)ccn1)N1CCC(CN2CCC2)CC1 [Example 26, N-(4-{[2-({[4-(Azetidin-1-ylmethyl)piperidin-1-yl]carbonyl}amino)pyridin-4-yl]oxy}-3-fluorophenyl)-N′-(4-fluorophenyl)cyclopropane-1,1-dicarboxamide]
12 | 7.23 | O=C(Nc1cc(Oc2ccc(NC(=O)C3(C(=O)Nc4ccc(F)cc4)CC3)cc2)ccn1)N1CCC(CN2CCC2)CC1 [Example 27, N-(4-{[2-({f [4-(Azetidin-1-ylmethyl)piperidin-1-yl]carbonyl}amino)pyridin-4-yl]oxy}phenyl)-N′-(4-fluorophenyl)cyclopropane-1,1-dicarboxamide]
13 | 7.14 | O=C(Nc1cc(Oc2ccc(NC(=O)C3(C(=O)Nc4ccc(F)cc4)CC3)cc2)ccn1)N1CCN(CCN2CCC2)CC1 [Example 28, N-(4-{[2-({[4-(2-Azetidin-1-ylethyl)piperazin-1-yl]carbonyl}amino)pyridin-4-yl]oxy}phenyl)-N′-(4-fluorophenyl)cyclopropane-1,1-dicarboxamide]
14 | 7.20 | O=C(Nc1cc(Oc2ccc(NC(=O)C3(C(=O)Nc4ccc(F)cc4)CC3)cc2)ccn1)N1CCC(CN2CCCC2)CC1 [Example 29, N-(4-Fluorophenyl)-N′-(4-{[2-({[4-(pyrrolidin-1-ylmethyl)piperidin-1-yl]-carbonyl}amino)pyridin-4-yl]oxy}phenyl)cyclopropane-1,1-dicarboxamide]
15 | 7.36 | CN(C)CCN1CCN(C(=O)Nc2cc(Oc3ccc(NC(=O)C4(C(=O)Nc5ccc(F)cc5)CC4)cc3)ccn2)CC1 [Example 30, N-[4-({2-[({4-[2-(Dimethylamino)ethyl]piperazin-1-yl}carbonyl)amino]pyridin-4-yl}oxy)phenyl]-N′-(4-fluorophenyl)cyclopropane-1,1-dicarboxamide]
16 | 7.21 | CN1CCC(N2CCN(C(=O)Nc3cc(Oc4ccc(NC(=O)C5(C(=O)Nc6ccc(F)cc6)CC5)cc4)ccn3)CC2)CC1 [Example 31, N-(4-Fluorophenyl)-N′-(4-{[2-({[4-(1-methylpiperidin-4-yl)piperazin-1-yl]carbonyl}amino)pyridin-4-yl]oxy}phenyl)cyclopropane-1,1-dicarboxamide]
17 | 7.30 | CN1CCN(C2CCN(C(=O)Nc3cc(Oc4ccc(NC(=O)C5(C(=O)Nc6ccc(F)cc6)CC5)cc4)ccn3)CC2)CC1 [Example 32, N-(4-Fluorophenyl)-N′-(4-{[2-({[4-(4-methylpiperazin-1-yl)piperidin-1-yl]carbonyl}amino)pyridin-4-yl]oxy}phenyl)cyclopropane-1,1-dicarboxamide]
18 | 7.34 | CN(C)[C@@H]1CCN(C(=O)Nc2cc(Oc3ccc(NC(=O)C4(C(=O)Nc5ccc(F)cc5)CC4)cc3F)ccn2)C1 [Example 36, N-(4-{[2-({[(3R)-3-(Dimethylamino)pyrrolidin-1-yl]carbonyl}amino)pyridin-4-yl]oxy}-3-fluorophenyl)-N′-(4-fluorophenyl)cyclopropane-1,1-dicarboxamide]
19 | 7.28 | O=C(Nc1cc(Oc2ccc(NC(=O)C3(C(=O)Nc4ccc(F)cc4)CC3)c(F)c2)ccn1)N1CCC(CN2CCC2)CC1 [Example 37, N-(4-{[2-({[4-(Azetidin-1-ylmethyl)piperidin-1-yl]carbonyl}amino)pyridin-4-yl]oxy}-2-fluorophenyl)-N′-(4-fluorophenyl)cyclopropane-1,1-dicarboxamide]
20 | 7.28 | CN(C)C1CN(C2CCN(C(=O)Nc3cc(Oc4ccc(NC(=O)C5(C(=O)Nc6ccc(F)cc6)CC5)cc4)ccn3)CC2)C1 [Example 38, N-[4-({2-[({4-[3-(Dimethylamino)azetidin-1-yl]piperidin-1-yl}carbonyl)amino]pyridin-4-yl}oxy)phenyl]-N′-(4-fluorophenyl)cyclopropane-1,1-dicarboxamide]
21 | 7.00 | CN(C)CCN1CCC(N(C)C(=O)Nc2cc(Oc3ccc(NC(=O)C4(C(=O)Nc5ccc(F)cc5)CC4)cc3)ccn2)CC1 [Example 39, N-(4-{[2-({[{1-[2-(Dimethylamino)ethyl]piperidin-4-yl}(methyl)amino]carbonyl}amino)pyridin-4-yl]oxy}phenyl)-N′-(4-fluorophenyl)cyclopropane-1,1-dicarboxamide]
22 | 7.26 | O=C(Nc1cc(Oc2ccc(NC(=O)C3(C(=O)Nc4ccc(F)cc4)CC3)c(F)c2)ccn1)N1CCC(CN2CCCC2)CC1 [Example 40, N-(4-Fluorophenyl)-N′-(2-fluoro-4-{[2-({[4-(pyrrolidin-1-ylmethyl)piperidin-1-yl]carbonyl}amino)pyridin-4-yl]oxy}phenyl)cyclopropane-1,1-dicarboxamide]
23 | 7.36 | CN(C)[C@H]1CCN(C(=O)Nc2cc(Oc3ccc(NC(=O)C4(C(=O)Nc5ccc(F)cc5)CC4)cc3)ccn2)C1 [Example 41, N-(4-{[2-({[(3S)-3-(Dimethylamino)pyrrolidin-1-yl]carbonyl}amino)pyridin-4-yl]oxy}phenyl)-N′-(4-fluorophenyl)cyclopropane-1,1-dicarboxamide]
24 | 7.24 | CN(C)[C@@H]1CCN(C(=O)Nc2cc(Oc3ccc(NC(=O)C4(C(=O)Nc5ccc(F)cc5)CC4)cc3)ccn2)C1 [Example 42, N-(4-{[2-({[(3R)-3-(Dimethylamino)pyrrolidin-1-yl]carbonyl}amino)pyridin-4-yl]oxy}phenyl)-N′-(4-fluorophenyl)cyclopropane-1,1-dicarboxamide]
25 | 7.19 | CN(C)[C@H]1CCN(C(=O)Nc2cc(Oc3ccc(NC(=O)C4(C(=O)Nc5ccc(F)cc5)CC4)c(F)c3)ccn2)C1 [Example 46, N-(4-{[2-({[(3S)-3-(Dimethylamino)pyrrolidin-1-yl]carbonyl}amino)pyridin-4-yl]oxy}-2-fluorophenyl)-N′-(4-fluorophenyl)cyclopropane-1,1-dicarboxamide]
26 | 7.08 | CN(C)[C@@H]1CCN(C(=O)Nc2cc(Oc3ccc(NC(=O)C4(C(=O)Nc5ccc(F)cc5)CC4)c(F)c3)ccn2)C1 [Example 47, N-(4-{[2-({[(3R)-3-(Dimethylamino)pyrrolidin-1-yl]carbonyl}amino)pyridin-4-yl]oxy}-2-fluorophenyl)-N′-(4-fluorophenyl)cyclopropane-1,1-dicarboxamide]
